Tests used:
Type in all cases: functional, cell-based
[1] = tested on: MDA-MB-231; test: Cytotoxicity against human MDA-MB-231 cells after 72 hrs by MTT assay; conditions: MDA-MB-231, 72 h
[2] = Cytotoxicity against human PANC1 cells after 72 hrs by MTT assay; conditions: PANC-1, 72 h
[3] = tested on: HPAC; test: Cytotoxicity against human HPAC cells after 72 hrs by MTT assay
[4] = tested on: SW1990; test: Cytotoxicity against human SW1990 cells after 72 hrs by MTT assay; conditions: SW1990, 72 h

| Structure (SMILES) | IC50 [1] [µM] | IC50 [2] [µM] | IC50 [3] [µM] | IC50 [4] [µM] |
| --- | --- | --- | --- | --- |
| COC(=O)[C@H](Cc1cn(C)cn1)NC(=O)[C@@H](NC(=O)Nc1cc(C(F)(F)F)cc(C(F)(F)F)c1)C(C)C | 15.5 | 24.7 | 17.4 | 17.9 |
| COC(=O)[C@H](Cc1cn(C)cn1)NC(=O)[C@H](C)NC(=O)Nc1cc(C(F)(F)F)cc(C(F)(F)F)c1 |  | 50 |  |  |
| COC(=O)[C@H](Cc1cn(C)cn1)NC(=O)[C@@H](NC(=O)Nc1cc(C(F)(F)F)cc(C(F)(F)F)c1)C(C)(C)C | 9.4 | 8.8 | 9.8 | 8.5 |
| COC(=O)[C@H](Cc1cn(C)cn1)NC(=O)[C@H](CC(C)C)NC(=O)Nc1cc(C(F)(F)F)cc(C(F)(F)F)c1 | 10.6 | 16.8 | 13.2 | 9.1 |
| COC(=O)[C@H](Cc1cn(C)cn1)NC(=O)[C@H](Cc1c[nH]c2ccccc12)NC(=O)Nc1cc(C(F)(F)F)cc(C(F)(F)F)c1 |  | 31.4 |  |  |
| COC(=O)[C@H](Cc1cn(C)cn1)NC(=O)[C@H](CCC(=O)OCc1ccccc1)NC(=O)Nc1cc(C(F)(F)F)cc(C(F)(F)F)c1 |  | 85.5 |  |  |
| COC(=O)[C@H](Cc1cn(C)cn1)NC(=O)[C@H](Cc1ccccc1)NC(=O)Nc1cc(C(F)(F)F)cc(C(F)(F)F)c1 | 6.8 | 16.1 | 9.6 | 10.8 |
| COC(=O)[C@H](Cc1c[nH]cn1)NC(=O)[C@@H](NC(=O)Nc1cc(C(F)(F)F)cc(C(F)(F)F)c1)C(C)C |  | 98.4 |  |  |
| COC(=O)[C@H](Cc1cn(C)cn1)NC(=O)[C@@H](NC(=O)Nc1cccc(C(F)(F)F)c1)C(C)C |  | 61.9 |  |  |
| COC(=O)[C@H](Cc1cn(C)cn1)NC(=O)[C@H](CC(=O)OCc1ccccc1)NC(=O)Nc1cc(C(F)(F)F)cc(C(F)(F)F)c1 |  | 68.6 |  |  |
| CC[C@H](C)[C@H](NC(=O)Nc1cc(C(F)(F)F)cc(C(F)(F)F)c1)C(=O)N[C@@H](Cc1cn(C)cn1)C(=O)OC | 6.5 | 10.1 | 7.6 | 8.3 |
| CC(C)[C@H](NC(=O)Nc1cc(C(F)(F)F)cc(C(F)(F)F)c1)C(=O)N[C@@H](Cc1cn(C)cn1)C(=O)O |  | > 100 |  |  |
| CCn1cnc(C[C@H](NC(=O)[C@@H](NC(=O)Nc2cc(C(F)(F)F)cc(C(F)(F)F)c2)C(C)C)C(=O)OC)c1 | 7.6 | 11.1 | 9.5 | 9.4 |
| C[C@H](NC(=O)Nc1cc(C(F)(F)F)cc(C(F)(F)F)c1)C(=O)N[C@@H](Cc1cn(C)cn1)C(=O)O |  | > 100 |  |  |

From ChEMBL document CHEMBL3397008, “Design, synthesis and evaluation of XZH-5 analogues as STAT3 inhibitors” (Bioorg Med Chem, 2015)
